From patent US6949571B2, “1,2-dihydropyridine compounds, process for preparation of the same and use thereof” (Eisai Co., Ltd., priority 2000, dated 2005)
Read-outs that look alike come from different tables or passages of the source.

Tested on: AMPA receptor
[1] = Table 3, primary culture of rat embryo cerebral cortex nerve cells, 2 μM AMPA, 1 μM MK-801
[2] = Table 1, primary culture of rat embryo cerebral cortex nerve cells, 2 μM AMPA, 1 μM MK-801
[3] = Table 2, suppression of AMPA-induced calcium influx into nerve cells
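Also: primary rat embryonic cortical neurons grown on an astrocyte layer in 96-well plates, used after at least 8 to 10 days in culture, Fura2-AM fluorescence ratio at 340/380 nm excitation.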

Structure (SMILES) | IC50 [2] [nM] | IC50 [3] [nM] | also measured
O=C(NC1CCCCC1)c1cc(-c2ccccn2)cn(-c2ccccc2)c1=O [Example 344, 3-Cyclohexylaminocarbonyl-5-(2-pyridyl)-1-phenyl-1,2-dihydropyridin-2-one] | – | – | IC50 [1]: 4700 nM
N#Cc1ccccc1-c1cc(-c2nc3cnccc3[nH]2)cn(-c2ccccc2)c1=O [Example 362, 3-(2-Cyanophenyl)-5-(1H-imidazo[4,5-c]pyridin-2-yl)-1-phenyl-1,2-dihydropyridin-2-one] | – | – | IC50 [1]: 3700 nM
O=c1c(-c2nc3ccccc3n2-c2ccncc2)cc(-c2ccccn2)cn1-c1ccccc1 [Example 356, 3-[1-(Pyridin-4-yl)benzimidazol-2-yl]-5-(2-pyridyl)-1-phenyl-1,2-dihydropyridin-2-one] | – | – | IC50 [1]: 2100 nM
COC(=O)c1ccccc1-c1cc(-c2ccccn2)cn(-c2ccccc2)c1=O [Example 58, 3-(2-Methoxycarbonylphenyl)-5-(2-pyridyl)-1-phenyl-1,2-dihydropyridin-2-one] | 100 | – | –
N#Cc1ccccc1-c1cc(-c2ncccc2O)cn(-c2ccccc2)c1=O [Example 198, 3-(2-Cyanophenyl)-5-(3-hydroxypyridin-2-yl)-1-phenyl-1,2-dihydropyridin-2-one] | – | 300 | –
N#Cc1ccccc1-c1cc(-c2ccccn2)cn(COCc2ccccc2)c1=O [Example 316, 1-Benzyloxymethyl-3-(2-cyanophenyl)-5-(2-pyridyl)-1,2-dihydropyridin-2-one] | – | – | IC50 [1]: 2100 nM
N#Cc1cccc(-n2cc(-c3ccccn3)cc(-c3ccccc3C#N)c2=O)c1 [Example 94, 3-(2-Cyanophenyl)-5-(2-pyridyl)-1-(3-cyanophenyl)-1,2-dihydropyridin-2-one] | 1500 | – | –
N#Cc1ccccc1-c1cc(-c2ccccn2)cn(-c2ccccc2C#N)c1=O [Example 110, 3-(2-Cyanophenyl)-5-(2-pyridyl)-1-(2-cyanophenyl)-1,2-dihydropyridin-2-one] | 2000 | – | –
CC(C)(C)OC(=O)N1CCC(Cn2cc(-c3ccccn3)cc(-c3ccccc3C#N)c2=O)CC1 [Example 318, 1-[1-(tert-butoxycarbonyl)piperidin-4-yl]methyl-3-(2-cyanophenyl)-5-(2-pyridyl)-1,2-dihydropyridin-2-one] | – | – | IC50 [1]: 3100 nM
O=Cc1sccc1-c1cc(-c2ccccn2)cn(-c2ccccc2)c1=O [Example 286, 3-(2-Formylthiophen-3-yl)-5-(2-pyridyl)-1-phenyl-1,2-dihydropyridin-2-one] | – | 300 | –
COC(=O)c1cccc(-n2cc(-c3ccccn3)cc(-c3ccccc3C#N)c2=O)c1 [Example 14, 3-(2-Cyanophenyl)-5-(2-pyridyl)-1-(3-methoxycarbonylphenyl)-1,2-dihydropyridin-2-one] | 100 | – | –
N#Cc1ccccc1-c1cc(-c2ccoc2)cn(-c2ccccc2)c1=O [Example 48] | 40 | – | –
N#Cc1ccccc1-c1cc(C2=COCCO2)cn(-c2ccccc2)c1=O [Example 209, 3-(2-Cyanophenyl)-5-(5.6-dihydro-1.4-dioxin-2-yl)-1-phenyl-1,2-dihydropyridin-2-one] | – | 7000 | –
N#Cc1ccccc1-c1cc(-c2ccccn2)cn(-c2cncnc2)c1=O [Example 111, 3-(2-Cyanophenyl)-5-(2-pyridyl)-1-(pyrimidin-5-yl)-1,2-dihydropyridin-2-one] | 400 | – | –
N#Cc1ccccc1-c1cc(-c2ccncn2)cn(-c2ccccc2)c1=O [Example 202, 3-(2-Cyanophenyl)-1-phenyl-5-(4-pyrimidinyl)-1,2-dihydropyridin-2-one] | – | 700 | –
N#Cc1ccccc1-c1cc(-c2ccccn2)cn(-c2cccc(Cl)c2)c1=O [Example 102, 3-(2-Cyanophenyl)-5-(2-pyridyl)-1-(3-chlorophenyl)-1,2-dihydropyridin-2-one] | 20 | – | –
N#Cc1sccc1-c1cc(-c2ccccn2)cn(-c2ccccc2)c1=O [Example 391, 3-(2-Cyanothiophen-3-yl)-5-(2-pyridyl)-1-phenyl-1,2-dihydropyridin-2-one] | – | – | IC50 [1]: 100 nM
Nc1ccccc1-c1cc(-c2ccccn2)cn(-c2ccccc2)c1=O [Example 219, 3-(2-Aminophenyl)-1-phenyl-5-(2-pyridyl)-1,2-dihydropyridin-2-one] | – | 3700 | –
CC(C)(C)NS(=O)(=O)c1ccc(-c2cc(-c3ccccn3)cn(-c3ccccc3)c2=O)cc1 [Example 278, 3-[4-(tert-Butylaminosulfonyl)phenyl]-1-phenyl-5-(2-pyridyl)-1,2-dihydropyridin-2-one] | – | 2800 | –
O=c1c(-c2ccccc2O)cc(-c2ccccn2)cn1-c1ccc(F)cc1 [Example 142, 3-(2-Hydroxyphenyl)-5-(2-pyridyl)-1-(4-fluorophenyl)-1,2-dihydropyridin-2-one] | – | 2200 | –
O=c1c(S(=O)(=O)c2ccc(Cl)cc2)cc(-c2ccccn2)cn1-c1ccccc1 [Example 382-B, 3-(4-Chlorobenzenesulfonyl)-5-(2-pyridyl)-1-phenyl-1,2-dihydropyridin-2-one] | – | – | IC50 [1]: 2300 nM
O=c1c(C2=COCCO2)cc(-c2ccccn2)cn1-c1ccccc1 [Example 269, 3-(5,6-Dihydro-1,4-dioxin-2-yl)-1-phenyl-5-(2-pyridyl)-1,2-dihydropyridin-2-one] | – | 1900 | –

Structure (SMILES) | IC50 [2] [nM] | IC50 [3] [nM] | also measured
CC(=O)OCc1cccc(-n2cc(-c3ccccn3)cc(-c3ccccc3C#N)c2=O)c1 [Example 25, 3-(2-Cyanophenyl)-5-(2-pyridyl)-1-(3-acetoxymethylphenyl)-1,2-dihydropyridin-2-one] | 30 | – | –
O=c1c(-c2cccnc2F)cc(-c2ccccn2)cn1-c1ccc(F)cc1 [Example 82, 3-(2-Fluoro-3-pyridyl)-5-(2-pyridyl)-1-(4-fluorophenyl)-1,2-dihydropyridin-2-one] | 800 | – | –
Cc1cccc(-n2cc(-c3ccccn3)cc(-c3ccccc3C#N)c2=O)c1 [Example 103, 3-(2-Cyanophenyl)-5-(2-pyridyl)-1-(3-tolyl)-1,2-dihydropyridin-2-one] | 30 | – | –
N#Cc1ccccc1-c1cc(-c2ccccn2)cn(-c2cccc(C(F)(F)F)c2)c1=O [Example 104, 3-(2-Cyanophenyl)-5-(2-pyridyl)-1-(3-trifluoromethylphenyl)-1,2-dihydropyridin-2-one] | 200 | – | –
N#Cc1ccccc1-c1cc(-c2cccc(N3CCOCC3)n2)cn(-c2ccccc2)c1=O [Example 302, 3-(2-Cyanophenyl)-5-(2-morpholinopyridin-6-yl)-1-phenyl-1,2-dihydropyridin-2-one] | – | – | IC50 [1]: 300 nM
N#Cc1ccccc1-c1cc(-c2ccccn2)cn(-c2cccc3cccnc23)c1=O [Example 292, 3-(2-Cyanophenyl)-5-(2-pyridyl)-1-(8-quinolinyl)-1,2-dihydropyridin-2-one] | – | 3300 | –
N#Cc1ccccc1-c1cc(-c2ccsc2CO)cn(-c2ccccc2)c1=O [Example 30, 3-(2-Cyanophenyl)-5-(2-hydroxymethylthiophen-3-yl)-1-phenyl-1,2-dihydropyridin-2-one] | 40 | – | –
N#Cc1ccccc1-c1cc(-c2nc3ccccc3[nH]2)cn(-c2ccccc2)c1=O [Example 386, 3-(2-Cyanophenyl)-5-(1H-benzimidazol-2-yl)-1-phenyl-1,2-dihydropyridin-2-one] | – | – | IC50 [1]: 3500 nM
CCSc1ccc(-n2cc(-c3ccccn3)cc(-c3ccccc3C#N)c2=O)cn1 [Example 116, 3-(2-Cyanophenyl)-5-(2-pyridyl)-1-(2-ethylthiopyridin-5-yl)-1,2-dihydropyridin-2-one] | 200 | – | –
O=c1c(-c2ccccc2C(F)(F)F)cc(-c2ccccn2)cn1-c1cccnc1 [Example 132, 3-(2-Trifluoromethylphenyl)-5-(2-pyridyl)-1-(3-pyridyl)-1,2-dihydropyridin-2-one] | 3100 | – | –
CCN(CC)Cc1cccc(-c2cc(-c3ccccc3C#N)c(=O)n(-c3ccccc3)c2)n1 [Example 157, 3-(2-Cyanophenyl)-5-(6-diethylaminomethyl-2-pyridyl)-1-phenyl-1,2-dihydropyridin-2-one] | – | 500 | –
N#Cc1ccccc1-c1cc(-c2ccccn2)c[nH]c1=O [Example 6, 3-(2-Cyanophenyl)-5-(2-pyridyl)-2(1H)-pyridone] | 9300 | – | –
N#CCc1ccccc1-n1cc(-c2ccccn2)cc(-c2ccccc2C#N)c1=O [Example 151, 3-(2-Cyanophenyl)-5-(2-pyridyl)-1-(2-cyanomethylphenyl)-1,2-dihydropyridin-2-one] | – | 300 | –
N#Cc1ccccc1-c1cc(-c2ccccn2)cn(-c2ccc(N3CCCC3)nc2)c1=O [Example 112, 3-(2-Cyanophenyl)-5-(2-pyridyl)-1-[2-(pyrrolidin-1-yl)-pyridin-5-yl]-1,2-dihydropyridin-2-one] | 600 | – | –
CN(C)CCOc1ccc(-n2cc(-c3ccccn3)cc(-c3ccccc3Cl)c2=O)cc1 [Example 19, 3-(2-Chlorophenyl)-5-(2-pyridyl)-1-(4-dimethylaminoethoxyphenyl)-1,2-dihydropyridin-2-one] | 80 | – | –
O=c1c(-c2nc(-c3ccccc3)no2)cc(-c2ccccn2)cn1-c1ccccc1 [Example 390, 3-(3-Phenyl-1,2,4-oxadiazol-5-yl)-1-phenyl-5-(2-pyridyl)-1,2-dihydropyridin-2-one] | – | – | IC50 [1]: 1000 nM
N#Cc1ccccc1Nc1cc(-c2ccccn2)cn(-c2ccccc2)c1=O [Example 321, 3-(2-Cyanophenylamino)-5-(2-pyridyl)-1-phenyl-1,2-dihydropyridin-2-one] | – | – | IC50 [1]: 4000 nM
COc1ccc(-c2cc(-c3ccccc3C#N)c(=O)n(-c3ccccc3)c2)cc1OC [Example 43, 3-(2-Cyanophenyl)-5-(3,4-dimethoxyphenyl)-1-phenyl-1,2-dihydropyridin-2-one] | 500 | – | –
O=c1c(-c2ccccc2)cc(-c2ccccn2)cn1-c1cccnc1 [Example 127, 3-Phenyl-5-(2-pyridyl)-1-(3-pyridyl)-1,2-dihydropyridin-2-one] | 400 | – | –
CC(=O)Nc1cccc(-c2cc(-c3ccccc3C#N)c(=O)n(-c3ccccc3)c2)n1 [Example 229, 5-[(6-Acetylamino)pyridin-2-yl]-3-(2-cyanophenyl)-1-phenyl-1,2-dihydropyridin-2-one] | – | 4200 | –
O=c1c(-c2ccc(O)cc2)cc(-c2ccccn2)cn1-c1ccccc1 [Example 238, 3-(4-Hydroxyphenyl)-1-phenyl-5-(2-pyridyl)-1,2-dihydropyridin-2-one] | – | 600 | –
